# Molecular target: T1, human EP4 receptor (Homo sapiens, UniProt P35408)
# Assay: Measurement of cAMP responses by Homogeneous Time Resolved Fluorescence (Test 2)
# Format: cell-based
# Design: expressed in transfected cells
# Conditions: HEK293, PGE2 1 nM, HEK-293 cells stably expressing human EP4, read-out: Results of Test 2 (Functional assay, antagonist % inh)
# Procedure: Test 2: Measurement of cAMP Responses by Homogeneous Time Resolved Fluorescence
# cAMP measurements on HEK-293 cells that stably expressed human EP4 receptors were performed by using a system based on Homogeneous Time Resolved Fluorescense (HTRF). This technology allows the direct measurement of cAMP in living cells. The principle of this assay is based on competition between cAMP produced by cells and cAMP-d2 conjugate for the binding with monoclonal anti-cAMP-cryptate conjugate. The HTRF cAMP kit from CisBio was used according to the manufacturer's directions. The experimental procedure was performed as stated below.
# Suspended cells (30,000 cells per well) were added to 96-well culture plates in 30 μl of Optimem supplemented with 500 μM IBMX. Compounds were then added in 10 μl of stimulation buffer and incubated at 25° C. for 30 minutes followed by 10 μl of PGE2 to a final concentration of 1 nM. After 30 minutes at 25° C., the reaction was stopped lysing the cells with a mixture of 25 μl of cryptate and 25 μl of cAMP-d2 prepared in the lysis buffer supplied by the manufacturer. Plates were incubated for an additional hour at room temperature and read at 665 nm/620 nm using an UltraEvolution Plate reader (Tecan).
# Antagonist percentage inhibition was calculated relating compounds activity to the 0% inhibition of the wells incubated with 1 nM PGE2 alone and 100% inhibition of the wells incubated with 1 nM PGE2 plus 1 μM of the reference antagonist.
# T1 sequence (P35408 whole entry): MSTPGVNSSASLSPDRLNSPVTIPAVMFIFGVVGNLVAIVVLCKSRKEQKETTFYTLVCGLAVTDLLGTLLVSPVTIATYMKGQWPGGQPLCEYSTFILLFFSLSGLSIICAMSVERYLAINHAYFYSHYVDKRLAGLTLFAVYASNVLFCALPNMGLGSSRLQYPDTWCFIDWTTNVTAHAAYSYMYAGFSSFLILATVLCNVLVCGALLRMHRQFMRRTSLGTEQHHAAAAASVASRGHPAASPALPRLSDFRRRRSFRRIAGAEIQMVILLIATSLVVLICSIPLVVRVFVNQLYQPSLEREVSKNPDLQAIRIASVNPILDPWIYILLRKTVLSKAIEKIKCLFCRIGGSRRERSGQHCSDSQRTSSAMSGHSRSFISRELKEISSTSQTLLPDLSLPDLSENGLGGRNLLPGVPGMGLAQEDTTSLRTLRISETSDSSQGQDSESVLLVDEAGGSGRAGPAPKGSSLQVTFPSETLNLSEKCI
row,inhibition at 10 µM,Structure (SMILES)
1,> 75%,"O=C(O)c1cc(Cl)c(NC(=O)c2cc(-c3nccc(C(F)(F)F)n3)ccc2Cl)c(Cl)c1 [Example 60, Sodium 3,5-dichloro-4-(2-chloro-5-(4-(trifluoromethyl)pyrimidin-2-yl)benzamido)benzoate]"

# Same assay, conditions: at 10 μM; PGE2 1 nM, HEK-293 cells stably expressing human EP4
row,"Results of Test 2 (Functional assay, antagonist % inh)",Structure (SMILES)
1,$ (% inh >75),"Cc1ccc(-c2cc(Cl)ccc2F)cc1C(=O)Nc1c(C)cc(C(=O)O)cc1C [Example 10, 4-(5′-Chloro-2′-fluoro-4-methylbiphenyl-3-ylcarboxamido)-3,5-dimethylbenzoic acid]"
2,$ (% inh >75),"Cc1cc(C(=O)O)cc(Cl)c1NC(=O)c1cc(-c2cccc(Cl)c2)ccc1Cl [Example 22, 3-Chloro-4-(3′,4-dichlorobiphenyl-3-ylcarboxamido)-5-methylbenzoic acid]"

# Molecular target: T1, human EP4 receptor
# Assay: Human EP4 receptor radioligand binding assay (Test 1)
# Design: expressed in transfected cells; host or cells: HEK-293 cell membranes
# Conditions: [3H]-PGE2 1 nM, transfected HEK-293 cell membranes, read-out: Results of Test 1 (Binding assay, % inh)
# Procedure: Test 1: Human EP4 Receptor Radioligand Binding Assay
# To investigate binding properties of EP4 receptor ligands to human EP4 receptor, transfected HEK-293 cell membranes and [3H]-PGE2 (Perkin Elmer) were used. In 96-well plates the assay was carried out with a total reaction volume of 250 μl, containing 25 μl of membrane suspension (30 μg protein/well), 25 μl of [3H]-PGE2 (1 nM) in either absence or presence of 25 μl of either buffer or PGE2 (10 μM) for total and non-specific binding, respectively. Binding buffer contained 25 mM MES, 10 mM MgCl2 and 1 mM EDTA at pH 6.0. Plates were incubated at 25° C. for 120 minutes. After the incubation period, 200 μl of incubate were transferred to MultiScreen HTS, FB plates (Millipore), filtered and plates were washed 6 times with ice-cold 10 mM MES, 0.01% BSA at pH 6.0. Filters were dried and counted in a MicroBeta scintillation counter (Perkin-Elmer) using EcoScint liquid scintillation cocktail.
# Percentage inhibition was calculated relating compounds activity to the 0% inhibition of the wells incubated with 1 nM [3H]-PGE2 alone (total binding) and 100% inhibition of the wells incubated with 1 nM [3H]-PGE2 plus 10 μM PGE2 (non-specific binding).
row,inhibition at 10 µM,Structure (SMILES)
1,> 75%,"O=C(O)c1cc(Cl)c(NC(=O)c2cc(-c3nccc(C(F)(F)F)n3)ccc2Cl)c(Cl)c1 [Example 60, Sodium 3,5-dichloro-4-(2-chloro-5-(4-(trifluoromethyl)pyrimidin-2-yl)benzamido)benzoate]"
2,> 75%,"O=C(O)c1cc(Cl)c(NC(=O)c2cc(OCc3ccccc3)ccc2Cl)c(Cl)c1 [Example 29, 4-(5-(Benzyloxy)-2-chlorobenzamido)-3,5-dichlorobenzoic acid]"
3,> 75%,"CC(C)Oc1ccc(Cl)c(C(=O)Nc2c(Cl)cc(C(=O)O)cc2Cl)c1 [Example 30, 3,5-Dichloro-4-(2-chloro-5-isopropoxybenzamido)benzoic acid]"
4,> 75%,"Cc1ccc(C(=O)O)cc1NC(=O)c1cc(OCc2ccccc2)ccc1Cl [Example 71, Sodium 3-(5-(benzyloxy)-2-chlorobenzamido)-4-methylbenzoate]"
5,> 75%,"Cc1ccc(CC2CCCCC2)cc1C(=O)Nc1c(Cl)cc(C(=O)O)cc1Cl [Example 61, 3,5-Dichloro-4-(5-(cyclohexylmethyl)-2-methylbenzamido)benzoic acid]"
6,> 75%,"COCCN(C)c1ccc(Cl)c(C(=O)Nc2c(Cl)cc(C(=O)O)cc2Cl)n1 [Example 53, 3,5-Dichloro-4-(3-chloro-6-((2-methoxyethyl)(methyl)amino)-picolinamido)benzoic acid]"
7,> 75%,"O=C(O)c1cc(Cl)c(NC(=O)c2nc(NCC3CC3)ccc2Cl)c(Cl)c1 [Example 50, 3,5-Dichloro-4-(3-chloro-6-(cyclopropylmethylamino)picolinamido)benzoic acid]"
8,> 75%,"CCOc1ccc(Cl)c(C(=O)Nc2c(Cl)cc(C(=O)O)cc2Cl)c1 [Example 33, 3,5-Dichloro-4-(2-chloro-5-ethoxybenzamido)benzoic acid]"
9,> 75%,"COc1ccc(Cl)c(C(=O)Nc2c(Cl)cc(C(=O)O)cc2Cl)c1 [Example 31, 3,5-Dichloro-4-(2-chloro-5-methoxybenzamido)benzoic acid]"
10,> 75%,"CC(C)Cc1ccc(Cl)c(C(=O)Nc2c(Cl)cc(C(=O)O)cc2Cl)c1 [Example 63, 3,5-Dichloro-4-(2-chloro-5-isobutylbenzamido)-benzoic acid]"
11,> 75%,"CCN(CC)c1ccc(Cl)c(C(=O)Nc2c(Cl)cc(C(=O)O)cc2Cl)n1 [Example 55, 3,5-Dichloro-4-(3-chloro-6-(diethylamino)picolinamido)benzoic acid]"
12,> 75%,"O=C(O)c1cc(Cl)c(NC(=O)c2nc(NC3CCCC3)ccc2Cl)c(Cl)c1 [Example 51, 3,5-Dichloro-4-(3-chloro-6-(cyclopentylamino)picolinamido)benzoic acid]"
13,> 75%,"CCCNc1ccc(Cl)c(C(=O)Nc2c(Cl)cc(C(=O)O)cc2Cl)n1 [Example 56, 3,5-Dichloro-4-(3-chloro-6-(propylamino)picolinamido)benzoic acid]"
14,45 to 75%,"O=C(Nc1c(F)c(F)c(C(=O)O)c(F)c1F)c1cc(OCc2ccc(F)cc2F)ccc1Cl [Example 37, 4-(2-Chloro-5-(2,4-difluorobenzyloxy)benzamido)-2,3,5,6-tetrafluorobenzoic acid]"
15,> 75%,"CCN(C(=O)c1cc(OCc2ccc(Cl)cc2F)ccc1Cl)c1c(Cl)cc(C(=O)O)cc1Cl [Example 70, 3,5-Dichloro-4-(2-chloro-5-(4-chloro-2-fluorobenzyloxy)-N-ethylbenzamido)benzoic acid]"
16,> 75%,"O=C(O)c1cc(Cl)c(NC(=O)c2cc(OCC3CCC3)ccc2Cl)c(Cl)c1 [Example 32, 3,5-Dichloro-4-(2-chloro-5-(cyclobutylmethoxy)benzamido)benzoic acid]"
17,> 75%,"CCN(C(=O)c1cc(OCc2ccc(F)cc2F)ccc1Cl)c1c(Cl)cc(C(=O)O)cc1Cl [Example 69, 3,5-Dichloro-4-(2-chloro-5-(2,4-difluorobenzyloxy)-N-ethylbenzamido)benzoic acid]"
18,> 75%,"CC(C)(C)COc1ccc(Cl)c(C(=O)Nc2c(Cl)cc(C(=O)O)cc2Cl)c1 [Example 34, 3,5-Dichloro-4-(2-chloro-5-(neopentyloxy)benzamido)benzoic acid]"
19,> 75%,"Cc1ccc(C(=O)O)cc1NC(=O)c1cc(-c2nccc(C(F)(F)F)n2)ccc1Cl [Example 43, 3-(2-Chloro-5-(4-(trifluoromethyl)pyrimidin-2-yl)benzamido)-4-methylbenzoic acid]"
20,> 75%,"CCCCN(C)c1ccc(Cl)c(C(=O)Nc2c(Cl)cc(C(=O)O)cc2Cl)n1 [Example 54, 4-(6-(Butyl(methyl)amino)-3-chloropicolinamido)-3,5-dichlorobenzoic acid]"
21,> 75%,"O=C(O)c1cc(Cl)c(NC(=O)c2cc(Cc3ccccc3)ccc2Cl)c(Cl)c1 [Example 62, 4-(5-Benzyl-2-chlorobenzamido)-3,5-dichlorobenzoic acid]"

row,Structure (SMILES),inhibition at 10 µM
1,"Cc1ccc(C(=O)O)cc1NC(=O)c1cc(OCC(C)C)ccc1Cl [Example 44, 3-(2-Chloro-5-isobutoxybenzamido)-4-methylbenzoic acid]",> 75%
2,"CC(C)COc1ccc(Cl)c(C(=O)N(CC(C)C)c2c(Cl)cc(C(=O)O)cc2Cl)c1 [Example 67, 3,5-Dichloro-4-(2-chloro-5-isobutoxy-N-isobutylbenzamido)benzoic acid]",> 75%
3,"CC(C)COc1ccc(Cl)c(C(=O)Nc2c(Cl)cc(C(=O)O)cc2Cl)n1 [Example 49, 3,5-Dichloro-4-(3-chloro-6-isobutoxypicolinamido)benzoic acid]",> 75%
4,"CCN(C(=O)c1cc(OCC(C)C)ccc1Cl)c1c(Cl)cc(C(=O)O)cc1Cl [Example 66, 3,5-Dichloro-4-(2-chloro-5-isobutoxy-N-ethylbenzamido)benzoic acid]",> 75%
5,"COc1cc(C(=O)O)ccc1NC(=O)c1cc(OCC(C)C)ccc1Cl [Example 28, 4-(2-Chloro-5-isobutoxybenzamido)-3-methoxybenzoic acid]",> 75%
6,"CC(C)COc1ccc(Cl)c(C(=O)Nc2ccc(C(=O)O)cc2Cl)c1 [Example 26, 3-Chloro-4-(2-chloro-5-isobutoxybenzamido)benzoic acid]",> 75%
7,"Cc1cc(C(=O)O)cc(Cl)c1NC(=O)c1cc(OCC(C)C)ccc1Cl [Example 27, 3-Chloro-4-(2-chloro-5-isobutoxybenzamido)-5-methylbenzoic acid]",> 75%

# Same assay, conditions: at 10 μM; [3H]-PGE2 1 nM, transfected HEK-293 cell membranes
row,"Results of Test 1 (Binding assay, % inh)",Structure (SMILES)
1,# (% inh >75),"Cc1ccc(-c2cc(Cl)ccc2F)cc1C(=O)Nc1c(C)cc(C(=O)O)cc1C [Example 10, 4-(5′-Chloro-2′-fluoro-4-methylbiphenyl-3-ylcarboxamido)-3,5-dimethylbenzoic acid]"
2,# (% inh >75),"Cc1cc(C(=O)O)cc(Cl)c1NC(=O)c1cc(-c2cccc(Cl)c2)ccc1Cl [Example 22, 3-Chloro-4-(3′,4-dichlorobiphenyl-3-ylcarboxamido)-5-methylbenzoic acid]"
3,# (% inh >75),"Cc1ccc(C(=O)O)cc1NC(=O)c1cc(-c2cccc(Cl)c2)ccc1Cl [Example 40, 3-(3′,4-Dichlorobiphenyl-3-ylcarboxamido)-4-methylbenzoic acid]"
4,# (% inh >75),"Cc1c(NC(=O)c2cc(-c3cccc(Cl)c3)ccc2Cl)cccc1C(=O)O [Example 39, 3-(3′,4-Dichlorobiphenyl-3-ylcarboxamido)-2-methylbenzoic acid]"

row,Structure (SMILES),"Results of Test 1 (Binding assay, % inh)"
1,"O=C(O)c1ccc(Cl)c(NC(=O)c2cc(-c3cccc(Cl)c3)ccc2Cl)c1 [Example 41, 4-Chloro-3-(3′,4-dichlorobiphenyl-3-ylcarboxamido)benzoic acid]",# (% inh >75)

# Reference: patent publication US9926276B2, “Substituted benzamides with activity towards EP4 receptors” (DRACONIS PHARMA, S.L., priority 2013, dated 2018)
